Data published in US20070255041A1, “Bioengineered Vehicles for Targeted Nucleic Acid Delivery” (priority 2000, published 2007).

Key:
[1] = tested on: 3T3 cells (c-erbB-2 non-expressing); experiment: Transfection of 3T3 cells with pXL3031 luciferase plasmid; type: cell-based; details: 10% serum, mean of three measures
Protocol: (§1) Transfections were done using C6.5-H1, C6ML3-9 sFv′-H1, C6ML3-9 sFv′-P1 (comprising C6ML3-9 coupled to human protamine P1 peptide) and C6ML3-9 sFv′-salmon protamine (C6ML3-9-SP). Conjugates were mixed in […] with pXL3031 (pCOR Luc^+) reporter plasmid at different ratios and, after a 10 minute incubation, used to transfect c-erbB-2 expressing (3T3-HER2) or non-expressing (3T3) cell lines. Transfection were performed in the presence of 10% fetal calf serum (FCS) for 3T3-HER2, or 10% calf serum (CS) for 3T3. After 24 hours of incubation, cells were washed twice with PBS and lysed with 200 μl of cell culture lysis reagent (Promega). Luciferase expression was quantified using a luciferase assay kit (Promega) and a Lumat LB9501 luminometer (EG and G). Light emission (RLU) was normalized to the protein concentration of each sample, measured using the Pierce BCA assay. Conditions of transfection are summarized below for each experiment.
(§2) All transfections were done in the presence of 10% serum. Best transfection conditions are indicated for each compound. All complexes with sFv′ conjugates were formed in 20 mM NaCl, and all complexes with RPR120535 were formed in 20 mM NaHCO3150 mM NaCl. Values correspond to the mean of three different measures of the same assay.

[2] = tested on: 3T3-HER2 cells (c-erbB-2 expressing); experiment: Transfection of 3T3-HER2 cells with pXL3031 luciferase plasmid; type: cell-based; details: for RLU/μg of cell proteins: 10% serum, mean of three measures
Protocol: as §1, §2

[3] = tested on: plasmid DNA (pGL-control or pXL3031); experiment: Gel mobility shift analysis of complex formation with plasmid DNA; type: binding; details: 5.8 pmole (360 ng) conjugate; FIG. 18
Protocol: The ability of the anti-erbB-2 C6ML3-9 sFv′-salmone protamine (SP) conjugates to complex with plasmid DNA was tested by a gel mobility shift analysis.
The DNA was added last, and the mixture incubated on ice for 1 to 1.5 hour (in the case of kinetics studies, incubation time was from 5 minutes to 60 minutes as indicated). 2 μl of loading buffer (50% glycerol in 1×TE with dye) was added to the 20 μl reaction. The reaction was electrophoresed on 0.8% agarose gel in 1×TAE, 150 V for about an hour at room temperature and stained with EtBr overnight.

[4] = tested on: SK-OV-3 cells; experiment: Luciferase reporter gene delivery to erbB-2 positive cells; type: cell-based, human
Protocol: Gene delivery experiments were carried out with the anti-erbB-2 sFv′-[salmon protamine]-DNA complex (C6.5 sFv′-SP-DNA or C6ML3-9 sFv′-SP-DNA). The reporter DNA plasmid was the pGL3-control from Promega, which encodes the luciferase gene under control of the SV40 early promoter and enhancers. The erbB-2 positive cell line used in the study was SK-OV-3, a human ovarian cancer cell line. 200 ng of pGL3 reporter plasmid DNA was incubated with increasing amounts of either the sFv′-[salmon protamine] conjugates (sFv′-SP), or the sFv′ mixed with salmon protamine (SP) alone as described. Formation of the protein-DNA complex was confirmed by gel mobility shift analysis (data not shown). The mixture of protein and DNA were then incubated with SK-OV-3 cells in the absence or presence of 100 μM chloroquine. The protein-DNA mixture was removed from the cell culture after a 20 hour incubation. Cells were harvested for luciferase assays at about 40 hours post-incubation using a Dynex MLX Luminometer. The experiment data presented are an averaged data from quadruplet samples of a typical experiment.

[5] = tested on: MCF-7 cells; experiment: Luciferase reporter gene delivery to erbB-2 negative control cells; type: cell-based; details: FIG. 19
[6] = tested on: SK-OV-3 cells; experiment: pGeneGrip Rhodamine/GFP plasmid delivery, fluorescent microscopy, erbB-2 positive cells; type: cell-based, human; details: SK-OV-3, at 48 hours
Source text: pGeneGrip Rhodamine/GFP plasmid (Gene Therapy Systems) was used as another reporter plasmid for studying C6.5 sFv′-SP and C6ML3-9 sFv′-SP-mediated gene delivery. In this case, plasmid DNA encoding green fluorescent protein (GFP) was labeled with rhodamine, which allows one to follow internalization of the plasmid DNA as well as the expression of GFP. This reporter facilitated evaluation of the gene delivery efficiency at both DNA and protein expression levels. […] SK-OV-3 and MCF-7 cells were incubated with the protein/DNA complexes and fixed at 6, 24, 48, and 72 hours post-incubation for fluorescent microscopy. FIG. 21 represents the data from the 48 hour time point. […] The rhodamine labeled DNA could be seen inside of SK-OV-3 cells at 24 hours (data not shown). However, the GFP gene expression, was very low, about 1-2% cells being GFP positive in the case of C6ML3-9 sFv′-SP-mediated delivery at 48 hours. It should be noted that, although low, GFP expression level still correlates with the amount of DNA inside of the cells (FIG. 21, compare C6.5 sFv′-SP-DNA with that C6ML3-9 sFv′-SP-DNA). […] The low expression of GFP may be caused by the difficulty of plasmid DNA either escaping from the endosomes or reaching the nucleus.

[7] = 3T3-HER2, 7 μg/μg of DNA, no chloroquine

C6ML3-9 sFv′-H1: C6ML3-9 sFv′ reacted with maleimide-H1 peptide (residues 166 to 192 of human histone H1)
RLU/μg of cell proteins ([1]; 7 μg/μg of DNA, no chloroquine): 0 (±0) RLU/μg of cell proteins | RLU/μg of cell proteins [2, 7]: 27400 (±6030) RLU/μg of cell proteins | increase in transfection efficiency ([2]; 3T3-HER2, increasing conjugate to DNA mass ratio from 4 to 10, FIG. 26): 10 fold | transfection activity on addition of free C6ML3-9 sFv′ or C6ML3-9 sFv′-H1 complexed to pBks plasmid ([2]; competition, specificity of gene transfer, FIG. 25): could be reduced

C6ML3-9 sFv′-P1: C6ML3-9 coupled to human protamine P1 peptide (residues 11 to 28)
RLU/μg of cell proteins ([1]; 6 μg/μg of DNA, 150 μM chloroquine): 9 (±15) RLU/μg of cell proteins | RLU/μg of cell proteins ([2]; 3T3-HER2, 6 μg/μg of DNA, 150 μM chloroquine): 10024 (±3757) RLU/μg of cell proteins

CCCCCCCCCCCCCCCCCCN(CCCCCCCCCCCCCCCCCC)C(=O)CNC(=O)CNCCCNCCCCNCCCN [RPR120535, reference compound]
RLU/μg of cell proteins ([1]; 6 nmoles/μg of DNA, no chloroquine): 26100000 RLU/μg of cell proteins | RLU/μg of cell proteins ([2]; 3T3-HER2, 6 nmoles/μg of DNA, no chloroquine): 2980000 RLU/μg of cell proteins

C6ML3-9 sFv′-SP: C6ML3-9 sFv′ coupled via Sulfo-SMCC at its C-terminal sulfhydryl to salmon protamine
time in which the conjugate-DNA complex could form [3]: 5 min | luciferase gene delivery to SK-OV-3 cells ([4]; 200 ng pGL3-control plasmid, 20 hour incubation, luciferase assay about 40 hours post-incubation, FIG. 19): delivered luciferase reporter plasmids into SK-OV-3 cells | chloroquine dependence of luciferase gene delivery to SK-OV-3 cells ([4]; absence or presence of 100 μM chloroquine, FIG. 20): chloroquine-dependent | luciferase gene delivery to SK-OV-3 cells after pre-incubating the cells with free C6ML3-9 sFv′ ([4]; competition, data not shown): could be competed away | luciferase activity in MCF-7 cells (erbB-2 negative control) [5]: minimal luciferase activity | cells being GFP positive (GFP gene expression) [6]: 1-2% | RLU/μg of cell proteins ([1]; 4 μg/μg of DNA, 200 μM chloroquine): 1080 (±715) RLU/μg of cell proteins | RLU/μg of cell proteins ([2]; 3T3-HER2, 4 μg/μg of DNA, 200 μM chloroquine): 220000 (±20000) RLU/μg of cell proteins

B1: C6.5-H1: C6.5 sFv′ conjugated to the human histone H1 peptide (conjugate)
scFv: QVQLLQSGAELKKPGESLKISCKGSGYSFTSYWIAWVRQMPGKGLEYMGLIYPGDSDTKYSPSFQGQVTISVDKSVSTAYLQWSSLKPSDSAVYFCARHDVGYCSSSNCAKWPEYFQHWGQGTLVTVSSGGGGSGGGGSGGGGSQSVLTQPPSVSAAPGQKVTISCSGSSSNIGNNYVSWYQQLPGTAPKLLIYGHTNRPAGVPDRFSGSKSGTSASLAISGFRSEDEADYYCAAWDDSLSGWVFGGGTKLTVLGHHHHHHGGGGC
peptide: AKKAKSPKKAKAAKPKKAPKSPAKAK
RLU/μg of cell proteins ([1]; 7 μg/μg of DNA, no chloroquine): 6 (±7) RLU/μg of cell proteins | RLU/μg of cell proteins [2, 7]: 659 (±240) RLU/μg of cell proteins
